Laboratory results published in article PMC7206119, “RIP1 inhibition blocks inflammatory diseases but not tumor growth or metastases” (Cell Death and Differentiation, 2019).

How the values were obtained:
Experiment in all cases: biochemical
Design in all cases: Thermo Fisher SelectScreen kinase panel: Z'-LYTE and Adapta activity, LanthaScreen binding
BRK = target: T1, BRK (Homo sapiens, UniProt Q13882)
T1 construct: gene PTK6
How it was run: (§1)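 Single-concentration panel: 10 µM GNE684 in KINOMEscan scanMAX binding (468 kinases) and in a 221-kinase panel run as Z'-LYTE/Adapta activity or LanthaScreen binding assays.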

CK1_gamma1 = target: T2, CK1_gamma1 (Homo sapiens, UniProt Q9HCP0)
T2 construct: gene CSNK1G1
How it was run: as §1

CLK4 = CLK4 (Homo sapiens, UniProt Q9HAZ1)
How it was run: as §1

DAPK1 = DAPK1 (Homo sapiens, UniProt P53355)
How it was run: as §1

DYRK1A = DYRK1A (Homo sapiens, UniProt Q13627)
How it was run: as §1

EPHB1 = EPHB1 (Homo sapiens, UniProt P54762)
How it was run: as §1

FLT1 = FLT1 (Homo sapiens, UniProt P17948)
How it was run: as §1

GSK3_beta = target: T3, GSK3_beta (Homo sapiens, UniProt P49841)
T3 construct: gene GSK3B
How it was run: as §1

IKK-alpha = target: T4, IKK-alpha (Homo sapiens, UniProt O15111)
T4 construct: gene CHUK
How it was run: as §1

IRAK1 = IRAK1 (Homo sapiens, UniProt P51617)
How it was run: as §1

LTK = LTK (Homo sapiens, UniProt P29376)
How it was run: as §1

MKK6 = target: T5, MKK6 (Homo sapiens, UniProt P52564)
T5 construct: gene MAP2K6
How it was run: as §1

MUSK = MUSK (Homo sapiens, UniProt O15146)
How it was run: as §1

Mink1 = Mink1 (Homo sapiens, UniProt Q8N4C8)
How it was run: as §1

PIM1 = PIM1 (Homo sapiens, UniProt P11309)
How it was run: as §1

PRAK = target: T6, PRAK (Homo sapiens, UniProt Q8IW41)
T6 construct: gene MAPKAPK5
How it was run: as §1

RIPK3 = RIPK3 (Homo sapiens, UniProt Q9Y572)
How it was run: as §1

ROCK2 = ROCK2 (Homo sapiens, UniProt O75116)
How it was run: as §1

SGK1 = SGK1 (Homo sapiens, UniProt O00141)
How it was run: as §1

SRPK1 = SRPK1 (Homo sapiens, UniProt Q96SB4)
How it was run: as §1

TBK1 = TBK1 (Homo sapiens, UniProt Q9UHD2)
How it was run: as §1

TSSK1 = target: T7, TSSK1 (Homo sapiens, UniProt Q9BXA7)
T7 construct: gene TSSK1B
How it was run: as §1

TXK = TXK (Homo sapiens, UniProt P42681)
How it was run: as §1

Chain of DAPK1 (P53355 whole entry): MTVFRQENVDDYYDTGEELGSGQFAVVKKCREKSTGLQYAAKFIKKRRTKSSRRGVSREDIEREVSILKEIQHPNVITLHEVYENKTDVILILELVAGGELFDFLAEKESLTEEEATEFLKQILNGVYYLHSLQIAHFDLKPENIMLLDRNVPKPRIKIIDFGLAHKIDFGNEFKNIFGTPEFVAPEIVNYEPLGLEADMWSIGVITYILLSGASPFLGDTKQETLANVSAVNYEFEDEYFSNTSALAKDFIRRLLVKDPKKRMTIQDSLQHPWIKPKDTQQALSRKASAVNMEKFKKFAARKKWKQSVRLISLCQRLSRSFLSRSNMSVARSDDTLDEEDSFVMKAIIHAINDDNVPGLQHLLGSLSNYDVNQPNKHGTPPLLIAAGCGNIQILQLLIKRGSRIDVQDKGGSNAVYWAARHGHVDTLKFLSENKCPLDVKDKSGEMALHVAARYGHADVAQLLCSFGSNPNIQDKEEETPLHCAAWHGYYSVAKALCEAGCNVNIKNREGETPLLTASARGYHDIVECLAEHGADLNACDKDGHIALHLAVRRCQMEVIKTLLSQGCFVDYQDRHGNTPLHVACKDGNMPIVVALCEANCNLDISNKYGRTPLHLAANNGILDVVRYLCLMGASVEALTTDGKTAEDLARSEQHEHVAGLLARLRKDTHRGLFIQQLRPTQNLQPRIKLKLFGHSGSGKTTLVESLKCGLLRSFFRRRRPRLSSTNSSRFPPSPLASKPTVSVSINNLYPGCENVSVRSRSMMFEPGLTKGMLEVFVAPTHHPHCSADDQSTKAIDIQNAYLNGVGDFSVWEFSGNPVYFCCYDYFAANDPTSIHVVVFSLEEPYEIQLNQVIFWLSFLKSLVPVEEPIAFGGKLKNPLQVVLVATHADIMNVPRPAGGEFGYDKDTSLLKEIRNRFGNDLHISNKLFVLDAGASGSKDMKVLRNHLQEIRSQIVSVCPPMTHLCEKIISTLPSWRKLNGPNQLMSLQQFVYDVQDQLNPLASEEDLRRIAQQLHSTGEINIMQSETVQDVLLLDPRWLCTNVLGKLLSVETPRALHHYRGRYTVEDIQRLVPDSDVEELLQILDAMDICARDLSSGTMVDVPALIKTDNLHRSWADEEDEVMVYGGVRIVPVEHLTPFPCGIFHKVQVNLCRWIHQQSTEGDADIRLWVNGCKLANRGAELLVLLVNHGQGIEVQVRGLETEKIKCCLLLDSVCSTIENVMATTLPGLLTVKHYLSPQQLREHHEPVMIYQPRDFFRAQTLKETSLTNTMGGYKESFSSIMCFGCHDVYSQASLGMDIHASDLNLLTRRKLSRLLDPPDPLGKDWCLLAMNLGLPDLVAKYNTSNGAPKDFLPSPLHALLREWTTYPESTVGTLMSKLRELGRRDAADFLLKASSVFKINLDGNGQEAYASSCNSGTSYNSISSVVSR
Chain of Mink1 (Q8N4C8 whole entry): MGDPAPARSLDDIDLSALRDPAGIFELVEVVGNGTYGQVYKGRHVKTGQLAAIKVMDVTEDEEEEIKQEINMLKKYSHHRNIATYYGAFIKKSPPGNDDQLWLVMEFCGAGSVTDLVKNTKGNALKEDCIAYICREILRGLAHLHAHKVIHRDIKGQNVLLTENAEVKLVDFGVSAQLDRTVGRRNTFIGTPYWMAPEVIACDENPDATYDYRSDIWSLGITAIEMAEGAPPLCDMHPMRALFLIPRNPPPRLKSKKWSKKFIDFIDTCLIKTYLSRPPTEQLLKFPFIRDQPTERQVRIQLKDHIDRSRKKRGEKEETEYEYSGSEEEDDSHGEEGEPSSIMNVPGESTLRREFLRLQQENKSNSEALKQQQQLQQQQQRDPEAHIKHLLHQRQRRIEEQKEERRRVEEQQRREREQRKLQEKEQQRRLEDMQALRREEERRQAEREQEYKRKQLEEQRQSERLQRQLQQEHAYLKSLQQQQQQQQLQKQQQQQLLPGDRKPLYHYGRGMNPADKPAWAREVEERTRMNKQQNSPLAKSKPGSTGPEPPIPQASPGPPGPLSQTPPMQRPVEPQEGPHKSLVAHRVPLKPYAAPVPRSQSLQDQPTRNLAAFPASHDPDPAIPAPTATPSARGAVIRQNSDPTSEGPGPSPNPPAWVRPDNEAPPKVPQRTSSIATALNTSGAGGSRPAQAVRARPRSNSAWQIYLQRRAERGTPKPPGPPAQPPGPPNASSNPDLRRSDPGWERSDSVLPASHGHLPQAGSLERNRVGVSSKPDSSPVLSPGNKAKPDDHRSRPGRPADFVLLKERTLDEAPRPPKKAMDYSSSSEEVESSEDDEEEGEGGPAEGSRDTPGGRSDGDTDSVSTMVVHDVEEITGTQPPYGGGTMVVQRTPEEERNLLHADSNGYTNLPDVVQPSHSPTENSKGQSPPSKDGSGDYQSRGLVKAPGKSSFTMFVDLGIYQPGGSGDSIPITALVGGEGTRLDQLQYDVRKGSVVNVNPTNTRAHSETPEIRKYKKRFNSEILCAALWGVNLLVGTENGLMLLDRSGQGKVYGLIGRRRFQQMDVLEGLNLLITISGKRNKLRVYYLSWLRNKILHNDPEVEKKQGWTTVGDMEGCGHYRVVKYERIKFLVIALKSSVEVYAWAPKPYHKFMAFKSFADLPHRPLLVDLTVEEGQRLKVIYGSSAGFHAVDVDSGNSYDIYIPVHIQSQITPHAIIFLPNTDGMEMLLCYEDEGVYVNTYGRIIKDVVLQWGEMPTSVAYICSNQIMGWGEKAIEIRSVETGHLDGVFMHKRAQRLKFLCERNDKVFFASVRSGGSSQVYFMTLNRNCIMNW
Chain of MUSK (O15146 whole entry): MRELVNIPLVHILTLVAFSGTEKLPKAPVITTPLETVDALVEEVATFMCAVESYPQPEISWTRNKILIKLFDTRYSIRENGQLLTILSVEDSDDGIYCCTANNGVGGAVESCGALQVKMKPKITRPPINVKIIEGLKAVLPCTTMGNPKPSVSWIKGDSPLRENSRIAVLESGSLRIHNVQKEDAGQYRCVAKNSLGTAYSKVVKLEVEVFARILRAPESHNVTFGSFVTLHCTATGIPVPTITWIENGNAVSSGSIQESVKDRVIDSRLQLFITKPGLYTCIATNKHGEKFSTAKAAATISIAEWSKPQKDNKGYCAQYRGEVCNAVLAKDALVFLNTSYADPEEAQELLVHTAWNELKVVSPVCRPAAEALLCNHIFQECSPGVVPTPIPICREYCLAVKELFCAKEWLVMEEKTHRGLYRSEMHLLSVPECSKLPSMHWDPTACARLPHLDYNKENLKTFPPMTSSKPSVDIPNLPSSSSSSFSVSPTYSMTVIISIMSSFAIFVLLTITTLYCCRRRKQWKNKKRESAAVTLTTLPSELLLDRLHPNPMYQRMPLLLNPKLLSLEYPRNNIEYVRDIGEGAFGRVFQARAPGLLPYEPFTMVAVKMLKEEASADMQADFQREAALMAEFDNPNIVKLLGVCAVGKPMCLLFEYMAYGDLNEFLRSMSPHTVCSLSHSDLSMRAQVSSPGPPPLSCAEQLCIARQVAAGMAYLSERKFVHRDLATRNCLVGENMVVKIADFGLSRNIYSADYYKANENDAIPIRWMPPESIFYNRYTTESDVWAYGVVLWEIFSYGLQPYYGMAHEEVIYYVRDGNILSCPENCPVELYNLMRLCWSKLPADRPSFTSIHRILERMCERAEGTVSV
Chain of TXK (P42681 whole entry): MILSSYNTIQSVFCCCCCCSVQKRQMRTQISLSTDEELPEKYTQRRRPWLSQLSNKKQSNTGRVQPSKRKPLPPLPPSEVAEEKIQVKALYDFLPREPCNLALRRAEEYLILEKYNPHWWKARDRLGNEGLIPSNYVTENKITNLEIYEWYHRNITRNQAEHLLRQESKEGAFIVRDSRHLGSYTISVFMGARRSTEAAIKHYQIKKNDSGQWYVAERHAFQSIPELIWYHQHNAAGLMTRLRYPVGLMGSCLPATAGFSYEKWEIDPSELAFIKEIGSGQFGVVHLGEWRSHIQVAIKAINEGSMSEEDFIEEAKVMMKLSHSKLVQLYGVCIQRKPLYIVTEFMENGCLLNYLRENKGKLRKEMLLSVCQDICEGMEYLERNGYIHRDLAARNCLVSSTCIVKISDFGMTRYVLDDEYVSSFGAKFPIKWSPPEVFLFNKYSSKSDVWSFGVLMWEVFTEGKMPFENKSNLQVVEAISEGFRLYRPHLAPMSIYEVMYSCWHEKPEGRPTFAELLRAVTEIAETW
Chain of LTK (P29376 whole entry): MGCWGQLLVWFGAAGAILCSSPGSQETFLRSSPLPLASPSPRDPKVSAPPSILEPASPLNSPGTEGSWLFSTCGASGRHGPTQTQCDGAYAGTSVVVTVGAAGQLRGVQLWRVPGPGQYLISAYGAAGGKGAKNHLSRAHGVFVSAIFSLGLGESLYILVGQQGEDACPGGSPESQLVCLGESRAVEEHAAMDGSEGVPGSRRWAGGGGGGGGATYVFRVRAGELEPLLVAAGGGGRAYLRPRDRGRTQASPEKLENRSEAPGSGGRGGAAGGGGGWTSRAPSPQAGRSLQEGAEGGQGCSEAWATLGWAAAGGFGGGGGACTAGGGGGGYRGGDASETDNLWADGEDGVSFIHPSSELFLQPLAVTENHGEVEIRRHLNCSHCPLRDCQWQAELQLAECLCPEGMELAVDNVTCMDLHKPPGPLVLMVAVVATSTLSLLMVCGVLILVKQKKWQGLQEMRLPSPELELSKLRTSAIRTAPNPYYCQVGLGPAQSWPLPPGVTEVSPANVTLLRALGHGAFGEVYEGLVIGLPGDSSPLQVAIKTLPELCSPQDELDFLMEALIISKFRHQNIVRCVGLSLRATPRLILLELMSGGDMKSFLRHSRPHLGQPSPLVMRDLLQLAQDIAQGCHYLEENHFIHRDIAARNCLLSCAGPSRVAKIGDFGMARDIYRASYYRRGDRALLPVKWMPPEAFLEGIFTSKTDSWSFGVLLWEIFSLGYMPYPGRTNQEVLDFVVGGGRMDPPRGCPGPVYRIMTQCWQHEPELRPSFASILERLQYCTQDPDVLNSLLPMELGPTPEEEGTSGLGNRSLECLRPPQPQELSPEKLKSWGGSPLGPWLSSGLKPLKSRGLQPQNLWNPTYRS

Compound: COc1cc2c(cn1)N(C)C(=O)[C@@H](NC(=O)c1nc3n(n1)[C@H](c1ccccc1)CC3)CC2 [GNE684, (S)-N-((S)-7-methoxy-1-methyl-2-oxo-2,3,4,5-tetrahydro-1H-pyrido[3,4-b]azepin-3-yl)-5-phenyl-6,7-dihydro-5H-pyrrolo[1,2-b][1,2,4]triazole-2-carboxamide]
- inhibition at 10 µM (BRK): -1%
- inhibition at 10 µM (CK1_gamma1): 4%
- inhibition at 10 µM (CLK4): 2.5%
- inhibition at 10 µM (DAPK1): -11.5%
- inhibition at 10 µM (DYRK1A): 2%
- inhibition at 10 µM (EPHB1): 3%
- inhibition at 10 µM (FLT1): 3.5%
- inhibition at 10 µM (GSK3_beta): 5%
- inhibition at 10 µM (IKK-alpha): -3%
- inhibition at 10 µM (IRAK1): -10.5%
- inhibition at 10 µM (LTK): 7.5%
- inhibition at 10 µM (MKK6): -4.5%
- inhibition at 10 µM (MUSK): 14%
- inhibition at 10 µM (Mink1): 18.5%
- inhibition at 10 µM (PIM1): 1%
- inhibition at 10 µM (PRAK): 2.5%
- inhibition at 10 µM (RIPK3): -3%
- inhibition at 10 µM (ROCK2): 1.5%
- inhibition at 10 µM (SGK1): -1%
- inhibition at 10 µM (SRPK1): -0.5%
- inhibition at 10 µM (TBK1): 1%
- inhibition at 10 µM (TSSK1): 6%
- inhibition at 10 µM (TXK): 5.5%
